The test system of series [1] is Human glioma cell line SHG44. Put plainly: MTT cell viability assay, SHG44. Particulars: SHG-44, 72 h, read-out: IC50 antiproliferative activity SHG44. The series is classed as cell-based. As for the experimental part: (§1) Cell viability was measured using the 3-(4,5-dimethylthiazol-2-yl)-2,5-diphenyltetrazolium bromide (MTT) assay and was expressed as a ratio to the absorbance value at 570 nm of the control cells.
In general terms: Tetrazolium assays rely on reduction of a dye to a coloured formazan, in cell work by metabolically active cells.

Series [2] relates to Human glioblastoma cell line U251. Put plainly: MTT cell viability assay, U251. Particulars: U-251, 72 h, read-out: IC50 antiproliferative activity U251. The series is classed as cell-based. As for the experimental part: as §1
In series [3] the test system is Human colon carcinoma cell line SW-620. Put plainly: MTT cell viability assay, SW-620. Type of series: cell-based. Particulars: SW-620, 72 h, read-out: IC50 antiproliferative activity SW-620. The protocol: as §1
Series [4] can be described thus: Hepatic microsome stability assay, human. Type of series: in vitro ADME. The note with it: human liver microsomes, NADPH, 37°C, pH 7.4. The protocol:
(§2) Metabolic stability was assessed in the presence of human, mouse, and rat liver microsomes (XenoTech, Lenexa, KS, USA). All liquid dispenses and transfer steps were performed with the Freedom Evo automated liquid handler (Tecan US). Compound stock solutions were initially prepared in 100% DMSO and subsequently diluted in acetonitrile for the assay. The pH of the reactions was kept at 7.4 with potassium phosphate buffer. The reaction wells were prepared by adding microsomes to a well and allowed to warm to 37°C. Then, compound was added to each well. The reactions were […] by adding cofactor reduced nicotinamide adenine dinucleotide phosphate (NADPH) to the reaction well containing microsomes and compounds. Negative controls received buffer only. Immediately after reactions started, 0-min aliquots were promptly collected and mixed in a separate well with ice cold acetonitrile to quench the reactions. The remainder of the reaction volume was incubated at 37°C with shaking. An additional aliquot was collected at 60 min after the start of the reaction and promptly quenched with ice cold acetonitrile. Samples were vortexed and centrifuged at 3,500 rpm for 10 min. The amount of compound in the supernatant was determined by liquid chromatography–tandem mass spectrometry (LC/MS/MS) (Thermo Fischer Scientific, San Jose, CA, USA), and the percent of parent compound remaining after 60 min was calculated. Results are the mean of each reaction triplicate, normalized to the internal standard, and expressed as the percent of compound remaining after the incubation time.
(§3) Structures that are active in vitro may not be potent in vivo due to their susceptibility to metabolism in the body. We then thoroughly examined the liver microsomal metabolic stability of DMC-HA across three different species (Table 3). […] In addition, the half-life of DMC-HA in human microsome is generally two to three times longer than those in mice and rats. Collectively, the in vitro liver microsomal stability of DMC-HA is favorable, guaranteeing its further in vivo studies.
On the technique in general: Liver microsomes are a subcellular fraction often used to study metabolism.

For series [5], the system named is Human liver cancer cell line HepG2. Put plainly: MTT cell viability assay, HepG2. The series is classed as cell-based. Particulars: HepG2, 72 h, read-out: IC50 antiproliferative activity HepG2. As for the experimental part: as §1
Series [6] concerns Human umbilical vein endothelial cells HUVEC. Put plainly: MTT cell viability assay, HUVEC. The note with it: Homo sapiens, HUVEC, 72 h, read-out: IC50 HUVEC. The series is classed as cell-based. As for the experimental part:
as §1

The subject of series [7] is Human leukemia cell line K562. Put plainly: MTT cell viability assay, K562. Type of series: cell-based. The note with it: K562, 72 h, read-out: IC50 antiproliferative activity K562. The protocol: as §1
Series [8] has as its system all eight cell lines. Put plainly: Antiproliferative activity, panel of eight cancer cell lines (summary). Type of series: cell-based. Particulars: Homo sapiens, read-out: IC50 values against all eight cell lines. As for the experimental part:
Cells (5 × 10^4) were seeded into 96-well plates and exposed to vehicle (PBS) or different concentrations of compounds for 72 h. Cell viability was measured using the 3-(4,5-dimethylthiazol-2-yl)-2,5-diphenyltetrazolium bromide (MTT) assay and was expressed as a ratio to the absorbance value at 570 nm of the control cells.
As DMC-HA was identified as a potent novel inhibitor for HDACs, its antiproliferative activities on a panel of cancer cell lines and normal cells were evaluated, including four glioma cell lines, and the results are shown in Table 2. Vorinostat and curcumin were also tested as positive controls. […].

Series [9] in a line: Hepatic microsome stability assay, rat. Particulars: rat liver microsomes, NADPH, 37°C, pH 7.4. The series is classed as in vitro ADME. The protocol:
as §2, §3

The test system of series [10] is Human glioblastoma cell line U87. Put plainly: MTT cell viability assay, U87. The series is classed as cell-based. Particulars: 72 h, read-out: IC50 antiproliferative activity U87. The protocol:
Human GBM U87 cell line was purchased from the American Type Culture Collection (ATCC). Cells were cultured in Dulbecco’s modified Eagle’s medium (DMEM) supplemented with 10% fetal bovine serum (FBS) and maintained in a 37°C, 5% CO2 incubator. After cells were routinely passaged at 2- to 3-day intervals, experiments were carried out when the cells entered exponential growth phase.
as §1

Series [11] relates to Human glioma cell line LN229. Put plainly: MTT cell viability assay, LN229. Particulars: LN-229, 72 h, read-out: IC50 antiproliferative activity LN229. Type of series: cell-based. As for the experimental part:
as §1

The test system of series [12] is Human lung cancer cell line A549. Put plainly: MTT cell viability assay, A549. Type of series: cell-based. The note with it: A549, 72 h, read-out: IC50 antiproliferative activity A549. The protocol:
as §1

Series [13] in a line: Hepatic microsome stability assay, mice. Type of series: in vitro ADME. Particulars: mouse liver microsomes, NADPH, 37°C, pH 7.4. The protocol:
as §2, §3

Series [14] relates to U87 tumor xenograft. Particulars: nude mice, 20 mg/kg once daily. From the text:
Six-week-old BALB/c nude mice were purchased from Shanghai Experimental Animal Center of Chinese Academy of Science (Shanghai, China). All animal protocols were implemented according to the guidelines of the Association for Assessment and Accreditation of Laboratory Animal Care. U87 cells (3 × 10^6) were subcutaneously implanted into the right flank of mice. After 6 days of tumor growth, tumors grew to approximately 100 mm^3, and mice were randomly divided into three groups with nine animals in each group. […] The control group was intraperitoneally injected an equal volume of DMSO. Body weights and tumor volumes were measured every 2 days. After treatment, all of the mice were sacrificed, and the tumors were harvested, weighted, and photographed. The tumor volume was calculated according the formula: tumor volume = (length × width^2)/2.
U87 cells were subcutaneously inoculated into the right flank of mice.

In series [15] the target is SIRT1 (Homo sapiens, UniProt Q96EB6). Put plainly: HDACs inhibition assay, SIRT1.
Method: The inhibition assays for HDACs were carried out according to standard protocols. […] The reaction was stopped by the addition of 45 μl of 100 mM HEPES (pH 7.5) and 0.08% sodium dodecyl sulfate (SDS). The substrate and the product were then separated electrophoretically using a LabChip 3000 system (Caliper Life Sciences, Hopkinton, MA) with blue laser excitation and green fluorescence detection.
Series [16] deals with acetylated histone H3 in U87 cells. Put plainly: Western blot analysis for H3-histone acetylation. The note with it: various concentrations, 24 h. The series is classed as cell-based, Human. The protocol: U87 cells (5 × 10^5 cells/ml) in six-well plates were incubated with DMC-HA and lysed in radioimmunoprecipitation assay (RIPA) buffer containing protease and phosphatase inhibitors. Protein contents in the lysates were determined by Bradford’s assay, and 50 μg was separated by SDS polyacrylamide gel electrophoresis (SDS-PAGE) electrophoresis. Proteins were transferred to membranes and probed with human anti-acetylated H3 and anti-β actin antibodies as a loading control. Membranes were then labeled with the appropriate horseradish peroxidase (HRP)-conjugated immunoglobulin G (IgG), and protein bands were visualized using enhanced chemiluminescence. (Bio-Rad, Hercules, CA, USA).
Next, DMC-HA-induced acetylation of histone H3 in living cells was analyzed using Western blot method.
(In general: A western blot detects proteins with antibodies after separation by electrophoresis.)

The IC50 is the concentration that gives 50% inhibition. By microsomal CLint is commonly meant the capacity of the preparation to metabolise the compound, expressed as a volume cleared per time. Low values mean slow turnover, high ones rapid turnover.

Chain of SIRT1 (Q96EB6 whole entry): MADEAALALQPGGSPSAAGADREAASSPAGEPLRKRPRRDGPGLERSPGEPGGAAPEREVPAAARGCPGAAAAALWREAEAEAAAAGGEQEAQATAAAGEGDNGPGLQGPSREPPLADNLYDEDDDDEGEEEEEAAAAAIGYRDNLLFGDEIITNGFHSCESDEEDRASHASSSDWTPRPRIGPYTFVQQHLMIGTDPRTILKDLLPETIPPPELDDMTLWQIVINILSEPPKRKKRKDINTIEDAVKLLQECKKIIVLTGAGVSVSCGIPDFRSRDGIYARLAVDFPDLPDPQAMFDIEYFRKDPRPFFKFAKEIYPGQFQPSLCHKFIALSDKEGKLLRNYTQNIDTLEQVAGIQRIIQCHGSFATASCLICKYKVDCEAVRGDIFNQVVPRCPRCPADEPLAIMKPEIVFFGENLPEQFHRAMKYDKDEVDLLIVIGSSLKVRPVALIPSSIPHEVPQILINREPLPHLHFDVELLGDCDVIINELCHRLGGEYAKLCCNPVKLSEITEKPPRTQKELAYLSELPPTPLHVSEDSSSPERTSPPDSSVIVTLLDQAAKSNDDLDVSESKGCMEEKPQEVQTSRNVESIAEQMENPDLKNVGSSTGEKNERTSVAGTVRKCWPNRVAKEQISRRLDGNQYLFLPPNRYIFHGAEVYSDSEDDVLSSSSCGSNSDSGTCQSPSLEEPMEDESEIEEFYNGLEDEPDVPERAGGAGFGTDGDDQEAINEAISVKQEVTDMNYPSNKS

For the molecule `COc1cc(/C=C/C(=O)CC(=O)/C=C/c2ccc(O)c(OC)c2)ccc1O` [Curcumin, reference compound], the IC50 in series [1] stood at 24.6 ± 4.52 µM; in series [2], 27.6 ± 3.11 µM; in [3] it was 49.2 ± 7.42 µM; in series [5], 18.3 ± 3.21 µM; in series [6] it was 58.5 ± 7.92 µM; in series [7], 16.4 ± 1.23 µM. Moreover, the IC50 was 16.4 to 49.2 µM in series [8], 31.9 ± 2.9 µM in [10], 21.9 ± 4.65 µM in series [11] and 32.9 ± 3.99 µM in series [12]. The microsomal CLint in series [4] came to 82 µL/min/mg; in series [9], 138 µL/min/mg; in series [13], 92.9 µL/min/mg. Further, the half-life in [4] (read-out: Human Liver Microsomal Stability T1/2) was 17.2 min; in series [9] (read-out: Rat Liver Microsomal Stability T1/2) it was 10.4 min; in [13] (read-out: Mice Liver Microsomal Stability T1/2), 15.3 min.

As to `O=C(CCCCCCC(=O)Nc1ccccc1)NO` [Vorinostat, suberoylanilide hydroxamic acid, reference compound], in [14], the “effects on the body weight” value is “no effects on the body weight” and the “toxicity during the administration period” value was “no observable toxicity”. The same molecule registered an IC50 in series [15] above 10 µM. Moreover, the “acetylation of histone H3, dose dependence” value in [16] is recorded as “dose dependently increased the acetylation of histone H3”.
